Experimental data published in article PMC8548355 (Medicinal Chemistry Research, 2021).
Values after ≈ are worked out from the molar mass of the structure shown.

Experiments:
[1] = tested on: A. baumannii BAA 1605; experiment: MIC by broth microdilution against A. baumannii BAA 1605; type: cell-based; details: Acinetobacter baumannii, BAA1605, read-out: MIC against A. baumannii BAA 1605
[2] = tested on: S. aureus ATCC 29213; experiment: MIC by broth microdilution against S. aureus ATCC 29213; type: cell-based, Staphylococcus aureus; details: for MIC: Staphylococcus aureus, ATCC29213, read-out: MIC against S. aureus ATCC 29213, broth microdilution, 37 °C, 16–18 h; for MIC against S. aureus ATCC 29213: broth microdilution, 37 °C, 16–18 h
[3] = tested on: K. pneumoniae BAA 1705; experiment: MIC by broth microdilution against K. pneumoniae BAA 1705; type: cell-based; details: Klebsiella pneumoniae, BAA1705, read-out: MIC against K. pneumoniae BAA 1705
[4] = tested on: E. coli ATCC 25922; experiment: MIC by broth microdilution against E. coli ATCC 25922; type: cell-based; details: Escherichia coli, ATCC25922, read-out: MIC against E. coli ATCC 25922
[5] = tested on: S. aureus ATCC 29213; experiment: Drug interaction of 22 with FDA-approved drugs, checkerboard method; type: cell-based, Staphylococcus aureus; details: for MIC of drug in the presence of “22” “B”: S. aureus ATCC 29213, checkerboard, in combination with 22; for MIC: Staphylococcus aureus, ATCC29213, 24 h, read-out: MIC (drug alone); for Inference (drug interaction): combination of 22 with the drug, S. aureus ATCC 29213
[6] = tested on: MRSA NRS 10192; experiment: MIC against clinical MRSA isolate NRS 10192; type: cell-based; details: Staphylococcus aureus, MRSA|NRS10192, read-out: MIC against MRSA NRS 10192
[7] = tested on: MRSA NRS 10119; experiment: MIC against clinical MRSA isolate NRS 10119; type: cell-based; details: Staphylococcus aureus, MRSA|NRS10119, read-out: MIC against MRSA NRS 10119
[8] = tested on: MRSA NRS 10100; experiment: MIC against clinical MRSA isolate NRS 10100; type: cell-based; details: Staphylococcus aureus, MRSA|NRS10100, read-out: MIC against MRSA NRS 10100
[9] = tested on: VRSA VRS 1; experiment: MIC against clinical VRSA isolate VRS 1; type: cell-based; details: Staphylococcus aureus, read-out: MIC against VRSA VRS 1
[10] = tested on: MRSA NRS 10191; experiment: MIC against clinical MRSA isolate NRS 10191; type: cell-based; details: Staphylococcus aureus, MRSA|NRS10191, read-out: MIC against MRSA NRS 10191
[11] = tested on: VRSA VRS 4; experiment: MIC against clinical VRSA isolate VRS 4; type: cell-based; details: Staphylococcus aureus, read-out: MIC against VRSA VRS 4
[12] = tested on: MRSA NRS 10194; experiment: MIC against clinical MRSA isolate NRS 10194; type: cell-based; details: Staphylococcus aureus, MRSA|NRS10194, read-out: MIC against MRSA NRS 10194
[13] = tested on: MRSA NRS 10193; experiment: MIC against clinical MRSA isolate NRS 10193; type: cell-based; details: Staphylococcus aureus, MRSA|NRS10193, read-out: MIC against MRSA NRS 10193
[14] = tested on: MRSA NRS 10198; experiment: MIC against clinical MRSA isolate NRS 10198; type: cell-based; details: Staphylococcus aureus, MRSA|NRS10198, read-out: MIC against MRSA NRS 10198
[15] = tested on: MRSA NRS 10186; experiment: MIC against clinical MRSA isolate NRS 10186; type: cell-based; details: Staphylococcus aureus, MRSA|NRS10186, read-out: MIC against MRSA NRS 10186
[16] = tested on: VRSA VRS 12; experiment: MIC against clinical VRSA isolate VRS 12; type: cell-based; details: Staphylococcus aureus, read-out: MIC against VRSA VRS 12
[17] = tested on: MRSA NRS 10129; experiment: MIC against clinical MRSA isolate NRS 10129; type: cell-based; details: Staphylococcus aureus, MRSA|NRS10129, read-out: MIC against MRSA NRS 10129

Row | SMILES | MIC [1] [µg/mL] | MIC [2] [µg/mL] | MIC [3] [µg/mL] | MIC [4] [µg/mL] | also measured
1 | O=C(Nc1ccccc1)c1cccc(Cl)c1 [Compound 4, N-(phenyl)-3-chlorobenzamide] | > 64 | > 64 | > 64 | > 64 | 
2 | O=C(Nc1ccc([N+](=O)[O-])cc1F)c1cc(Cl)ccc1O [Compound 18, 5-Chloro-N-(2ʹ-fluoro-4ʹ-nitrophenyl)-2-hydroxybenzamide] | > 64 | 1 (≈ 3.22 µM) | > 64 | > 64 | 
3 | O=C(Nc1ccc(F)c(F)c1)c1ccccc1O [Compound 11, N-(3ʹ,4ʹ-difluorophenyl)-2-hydroxybenzamide] | > 64 |  | > 64 | > 64 | 
4 | CCCCCCCCCC(=O)N[C@@H](Cc1c[nH]c2ccccc12)C(=O)N[C@H](CC(N)=O)C(=O)N[C@@H](CC(=O)O)C(=O)N[C@@H]1C(=O)NCC(=O)N[C@@H](CCCN)C(=O)N[C@@H](CC(=O)O)C(=O)N[C@H](C)C(=O)N[C@@H](CC(=O)O)C(=O)NCC(=O)N[C@H](CO)C(=O)N[C@@H]([C@H](C)CC(=O)O)C(=O)N[C@@H](CC(=O)c2ccccc2N)C(=O)O[C@@H]1C [Daptomycin] |  |  |  |  | MIC of drug in the presence of “22” “B” [5]: 1 µg/mL; MIC [5]: 1 µg/mL; Inference (drug interaction) [5]: No interaction
5 | O=C(Nc1ccc(F)c(Cl)c1)c1ccccc1O [Compound 13, N-(3ʹ-chloro-4ʹ-fluorophenyl)-2-hydroxybenzamide] | > 64 | 4 (≈ 15.1 µM) | > 64 | > 64 | 
6 | O=C(Nc1ccc(Cl)c(C(F)(F)F)c1)c1ccccc1O [Compound 19, N-(4ʹ-chloro-3ʹ-(trifluoromethyl)phenyl)-2-hydroxybenzamide] | > 64 | 1 (≈ 3.17 µM) | > 64 | > 64 | 
7 | CC(=O)NC[C@H]1CN(c2ccc(N3CCOCC3)c(F)c2)C(=O)O1 [Linezolid] |  |  |  |  | MIC of drug in the presence of “22” “B” [5]: 0.5 µg/mL; MIC [5]: 2 µg/mL; Inference (drug interaction) [5]: No interaction
8 | O=C(Nc1ccccc1F)c1ccccc1O [Compound 9, N-(2ʹ-fluorophenyl)-2-hydroxybenzamide] | > 64 |  | > 64 | > 64 | 
9 | CN(C)c1ccc(O)c2c1C[C@H]1C[C@H]3[C@H](N(C)C)C(O)=C(C(N)=O)C(=O)[C@@]3(O)C(O)=C1C2=O [Minocycline] |  |  |  |  | MIC of drug in the presence of “22” “B” [5]: 0.125 µg/mL; MIC [5]: 0.125 µg/mL; Inference (drug interaction) [5]: No interaction
10 | CO[C@H]1/C=C/O[C@@]2(C)Oc3c(C)c(O)c4c(O)c(c(/C=N/N5CCN(C)CC5)c(O)c4c3C2=O)NC(=O)/C(C)=C\C=C\[C@H](C)[C@H](O)[C@@H](C)[C@@H](O)[C@@H](C)[C@H](OC(C)=O)[C@@H]1C [Rifampicin] |  |  |  |  | Inference (drug interaction) [5]: No interaction
11 | O=C(Nc1ccccc1)c1ccccc1O [Compound 5, N-(phenyl)-2-hydroxybenzamide] | > 64 | 64 (≈ 300 µM) | > 64 | > 64 | 
12 | O=C(Nc1ccccc1)c1cc(Cl)ccc1O [Compound 6, 5-Chloro-N-(phenyl)-2-hydroxy-benzamide] | > 64 | 8 (≈ 32.3 µM) | > 64 | > 64 | 
13 | O=C(Nc1ccc([N+](=O)[O-])cc1F)c1ccccc1O [Compound 17, N-(2ʹ-fluoro-4ʹ-nitrophenyl)-2-hydroxybenzamide] |  | 2 (≈ 7.24 µM) |  |  | 
14 | O=C(Nc1ccc(F)c(F)c1)c1cc(Cl)ccc1O [Compound 12, 5-Chloro-N-(3ʹ,4ʹ-difluorophenyl)-2-hydroxybenzamide] | > 64 |  | > 64 | > 64 | MIC against S. aureus ATCC 29213 [2]: 0.5 µg/mL (≈ 1.76 µM)
15 | O=C(Nc1ccc(F)cc1[N+](=O)[O-])c1cc(Cl)ccc1O [Compound 16, 5-Chloro-N-(4ʹ-fluoro-2ʹ-nitrophenyl)-2-hydroxybenzamide] | > 64 | 3.88 (≈ 12.5 µM) | > 64 | > 64 | MIC against S. aureus ATCC 29213 [2]: 4 µg/mL (≈ 12.9 µM)
16 | O=C(Nc1ccccc1)c1ccccc1 [Compound 3, N-phenylbenzamide] | > 64 | > 64 | > 64 | > 64 | 
17 | O=C(Nc1ccc(F)cc1)c1ccccc1O [Compound 7, N-(4ʹ-fluorophenyl)-2-hydroxybenzamide] | > 64 |  | > 64 | > 64 | 
18 | O=C(Nc1ccccc1F)c1cc(Cl)ccc1O [Compound 10, 5-Chloro-N-(2ʹ-fluorophenyl)-2-hydroxybenzamide] | > 64 | 4 (≈ 15.1 µM) | > 64 | > 64 | 
19 | CNC(C)C1CCC(N)C(OC2C(N)CC(N)C(OC3OCC(C)(O)C(NC)C3O)C2O)O1 (stereo not shown) [Gentamicin] |  |  |  |  | MIC of drug in the presence of “22” “B” [5]: 0.25 µg/mL; MIC [5]: 0.5 µg/mL; Inference (drug interaction) [5]: No interaction
20 | CC(C)(O/N=C(\C(=O)N[C@@H]1C(=O)N2C(C(=O)[O-])=C(C[n+]3ccccc3)CS[C@H]12)c1csc(N)n1)C(=O)O [Ceftazidime] |  |  |  |  | MIC of drug in the presence of “22” “B” [5]: 16 µg/mL; MIC [5]: 16 µg/mL; Inference (drug interaction) [5]: No interaction
21 | COc1cccc(OC)c1C(=O)N[C@@H]1C(=O)N2[C@@H]1SC(C)(C)[C@@H]2C(=O)O [Methicillin, reference compound] |  |  |  |  | MIC [6]: > 64 µg/mL; MIC [7]: > 64 µg/mL; MIC [8]: > 64 µg/mL; MIC [9]: > 64 µg/mL; MIC [10]: > 64 µg/mL; MIC [11]: > 64 µg/mL; MIC [12]: 32 µg/mL (≈ 84.1 µM); MIC [13]: > 64 µg/mL; MIC [14]: > 64 µg/mL; MIC [15]: 64 µg/mL (≈ 168 µM); MIC [16]: > 64 µg/mL; MIC [17]: 32 µg/mL (≈ 84.1 µM)
22 | O=C(Nc1ccc(F)c(Cl)c1)c1cc(Cl)ccc1O [Compound 14, 5-Chloro-N-(3ʹ-chloro-4ʹ-fluorophenyl)-2-hydroxybenzamide] |  | 0.5 (≈ 1.67 µM) |  |  | 
23 | O=C(Nc1ccc(F)cc1[N+](=O)[O-])c1ccccc1O [Compound 15, N-(4ʹ-fluoro-2ʹ-nitrophenyl)-2-hydroxybenzamide] | > 64 | 32 (≈ 116 µM) | > 64 | > 64 | 
24 | O=C(Nc1ccc(F)cc1)c1cc(Cl)ccc1O [Compound 8, 5-Chloro-N-(4ʹ-fluorophenyl)-2-hydroxybenzamide] | > 64 | 2 (≈ 7.53 µM) | > 64 | > 64 | 
